Measured values reported in US7977328B2, “Heteroaryl benzamide derivatives for use as GLK activators in the treatment of diabetes” (AstraZeneca AB, priority 2005, dated 2011).

Experiments:
Zucker obese fa/fa rats = assay: Oral Glucose Tolerance Test (OGTT); type: in vivo, rat; details: 10 mg/kg, given orally 120 minutes before glucose 2 g/kg; Zucker obese fa/fa rats on high fat diet
Method: Oral glucose tolerance tests were done on conscious Zucker obese fa/fa rats (age 12-13 weeks or older) fed a high fat diet (45% kcal fat) for at least two weeks prior to experimentation. The animals were fasted for 2 hours before use for experiments. A test compound or a vehicle was given orally 120 minutes before oral administration of a glucose solution at a dose of 2 g/kg body weight. Blood glucose levels were measured using a Accucheck glucometer from tail bled samples taken at different time points before and after administration of glucose (time course of […]). A time curve of the blood glucose levels was generated and the area-under-the-curve (AUC) for 120 minutes was calculated (the time of glucose administration being time zero). Percent reduction in glucose excursion was determined using the AUC in the vehicle-control group as zero percent reduction.

[1] = target: T1, recombinant human pancreatic GLK (Homo sapiens, UniProt P35557); assay: biochemical
T1 sequence (P35557 1-465): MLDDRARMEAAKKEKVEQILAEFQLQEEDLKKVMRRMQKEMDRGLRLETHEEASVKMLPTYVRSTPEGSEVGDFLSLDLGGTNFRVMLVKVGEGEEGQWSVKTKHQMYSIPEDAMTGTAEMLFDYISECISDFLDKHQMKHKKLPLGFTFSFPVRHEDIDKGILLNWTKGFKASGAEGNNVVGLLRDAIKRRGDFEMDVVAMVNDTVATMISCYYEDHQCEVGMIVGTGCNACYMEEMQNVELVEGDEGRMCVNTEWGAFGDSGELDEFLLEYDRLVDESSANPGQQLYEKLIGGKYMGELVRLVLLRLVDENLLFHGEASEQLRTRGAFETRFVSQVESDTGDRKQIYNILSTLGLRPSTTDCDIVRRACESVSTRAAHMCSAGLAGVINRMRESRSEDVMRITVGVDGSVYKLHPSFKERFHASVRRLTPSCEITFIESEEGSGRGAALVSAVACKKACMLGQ

Row | melting point [°C] | SMILES | OGTT activity (percent reduction in glucose excursion, AUC) (Zucker obese fa/fa rats) [%] | EC50 [1] [nM]
1 | 125.7 | Cc1cnc(NC(=O)c2cc(Oc3ccc(C(=O)N4CCC4)nc3)cc(OC(C)C)c2)cn1 [Example 37, 3-{[6-(Azetidin-1-ylcarbonyl)pyridin-3-yl]oxy}-5-[(1-methylethyl)oxy]-N-(5-methylpyrazin-2-yl)benzamide] | – | –
2 | 100.6 | Cc1cnc(NC(=O)c2cc(Oc3cnc(C(=O)N4CCC4)cn3)cc(O[C@@H](C)CO)c2)cn1 [Example 59, 3-{[5-(Azetidin-1-ylcarbonyl)pyrazin-2-yl]oxy}-5-{[(1S)-2-hydroxy-1-methylethyl]oxy}-N-(5-methylpyrazin-2-yl)benzamide] | – | –

Row | SMILES | melting point [°C] | OGTT activity (percent reduction in glucose excursion, AUC) (Zucker obese fa/fa rats) [%] | EC50 [1] [nM]
3 | COC[C@H](C)Oc1cc(Oc2ccc(C(=O)N3CCC3)nc2)cc(C(=O)Nc2ccn(C)n2)c1 [Example 3, 3-{[6-(Azetidin-1-ylcarbonyl)pyridin-3-yl]oxy}-5-{[(1S)-1-methyl-2-(methyloxy)ethyl]oxy}-N-(1-methyl-1H-pyrazol-3-yl)benzamide] | 132.7 | 54 | 31
